Measurements taken from the CheMixHub viscosity set.

Assay: xn = mol fraction of the nth substance listed

OCCCCO + C[N+](C)(C)CCO.[Cl-]
viscosity [mPa·s]
Settings	293.15 K	298.15 K	298.2 K	303.15 K	308.15 K	308.2 K	313.15 K	318.15 K	318.2 K	323.15 K
101 kPa, x2 = 0.2	–	70.2	–	–	–	–	–	32.3	–	–
101.3 kPa, x1 = 0.7519	112.9	87.4	–	70.16	59.73	–	47.89	39.53	–	33.04
101.3 kPa, x1 = 0.8	99.69	78.77	–	62.96	51.08	–	41.67	34.51	–	28.9
101.3 kPa, x1 = 0.8334	93.6	74.9	–	59.28	48	–	39.41	32.5	–	27.36
101.3 kPa, x1 = 0.8575	91.44	72.28	–	57.86	46.72	–	38.31	31.67	–	26.47
101.3 kPa, x2 = 0.1672	–	–	75.5	–	–	58.2	–	–	42.8	–
101.3 kPa, x2 = 0.2	–	–	–	54.75	44.49	–	36.66	30.4	–	25.74
101.3 kPa, x2 = 0.25	–	–	–	60.64	49.3	–	40.55	33.94	–	28.53
